Values of other authors in patent US20080213433A1, “Fluid compositions comprising polyphenols and methods for making and packaging the same” (priority 2006, published 2008).

Legend:
SIRT1 = target: T1, SIRT1 (Homo sapiens, UniProt Q96EB6); conditions: sirtuin enzyme; cis-isomer compared to trans-resveratrol
T1 sequence (Q96EB6 1-747): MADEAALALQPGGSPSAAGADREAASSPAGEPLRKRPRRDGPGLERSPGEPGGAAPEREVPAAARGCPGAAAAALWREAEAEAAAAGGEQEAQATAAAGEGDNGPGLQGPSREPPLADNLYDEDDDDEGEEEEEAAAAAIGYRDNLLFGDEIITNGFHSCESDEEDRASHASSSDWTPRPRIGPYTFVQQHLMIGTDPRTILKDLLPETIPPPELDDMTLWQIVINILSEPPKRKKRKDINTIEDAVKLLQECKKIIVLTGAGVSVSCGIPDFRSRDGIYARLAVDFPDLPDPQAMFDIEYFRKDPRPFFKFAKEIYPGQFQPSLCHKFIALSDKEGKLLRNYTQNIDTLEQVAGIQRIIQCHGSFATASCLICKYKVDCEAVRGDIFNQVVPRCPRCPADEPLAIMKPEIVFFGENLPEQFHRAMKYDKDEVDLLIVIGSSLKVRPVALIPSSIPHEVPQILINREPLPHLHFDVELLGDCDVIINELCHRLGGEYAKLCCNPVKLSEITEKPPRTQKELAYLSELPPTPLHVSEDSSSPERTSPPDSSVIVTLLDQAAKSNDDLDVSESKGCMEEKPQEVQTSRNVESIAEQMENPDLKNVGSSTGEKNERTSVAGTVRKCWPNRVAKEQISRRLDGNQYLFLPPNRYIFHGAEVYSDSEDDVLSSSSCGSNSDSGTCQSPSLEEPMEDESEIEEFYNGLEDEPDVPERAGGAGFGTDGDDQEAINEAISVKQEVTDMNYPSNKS

[1] = β-glucosidases in the human intestines hydrolyze piceid and release free trans-resveratrol

| stimulation / activation of SIRT1 (SIRT1) | bioavailability of trans-resveratrol derived from the β-glucosidic form vs the free form in solution [1] | Compound |
| --- | --- | --- |
| considerably less efficacy |  | Oc1ccc(/C=C\c2cc(O)cc(O)c2)cc1 [Cis-resveratrol] |
| stimulate |  | Oc1ccc(/C=C/c2cc(O)cc(O)c2)cc1 [Trans-resveratrol] |
|  | equivalent | OCC1OC(Oc2cc(O)cc(/C=C/c3ccc(O)cc3)c2)C(O)C(O)C1O (stereo not drawn) [piceid, 2-[3-hydroxy-5-[(E)-2-(4-hydroxyphenyl)ethenyl]phenoxy]-6-(hydroxymethyl)oxane-3,4,5-triol] |
